Read-outs that look alike come from different tables or passages of the source.
Columns and labels:
[1] = 3H-thymidine incorporation toxicity assay on ConA-stimulated uninfected bovine PBMC (CC50); conditions: bovine
Description: (§1) All the MMV compounds were initially tested for inhibitory activity on the growth of F100TpM, a bovine lymphocyte cell line infected by T. parva. […] All compounds were tested in triplicate.
(§2) The radiolabeled precursor ^3H-thymidine is incorporated into DNA strands during cell replication and radioisotope incorporation is often used as a measure of cell proliferation.
(§3) IC50 values were calculated using the Graph Pad Prism 7 software (GraphPad Software, Inc., La Jolla, CA), and average values of radio-isotope incorporation in wells with and without compound on the growth of F100TpM cells. The CC50 values were calculated using ^3H-thymidine incorporation values determined on the growth of PBMC stimulated with ConA. The therapeutic index of a compound was calculated by dividing the CC50 value with the IC50 value.

[2] = tested on: F100TpM, a bovine lymphocyte cell line infected by T. parva; assay: 3H-thymidine incorporation growth assay on F100TpM cells (screen at 1 μM and IC50 titration); conditions: for TI (CC50/IC50), therapeutic index: CC50 on Con A blasts divided by IC50 on F100TpM;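 as to all read-outs here: growth inhibition compared against wells lacking compound, run in triplicate, and CC50 derived from 3H-thymidine uptake by PBMC stimulated with ConA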
Description: as §1, §2, §3

in vitro = conditions: bovine, CC50 (μM) Con A blasts
Description: as §1, §2, §3

[3] = tested on: P. falciparum 3D7 asexual blood stage; conditions: cited from earlier work
[4] = tested on: bovine PBMC stimulated with ConA (Con A blasts); assay: 3H-thymidine incorporation toxicity assay on ConA-stimulated uninfected bovine PBMC (CC50); conditions: read-out: CC50 (μM) Con A blasts; uninfected bovine PBMC stimulated with ConA, 48 h compound, 3H-thymidine incorporation
Description: as §1, §2, §3

Trypanosoma cruzi = tested on: Trypanosoma cruzi; set-up: method as in Van Voorhis et al., 2016; conditions: at 5 μM; ref Van Voorhis et al., 2016; cited from earlier work
[5] = tested on: P. falciparum gametocyte NF54-late stage; set-up: method as in Van Voorhis et al., 2016; conditions: at 5 μM; ref Van Voorhis et al., 2016; cited from earlier work
U87 = tested on: U87; set-up: method as in Van Voorhis et al., 2016; conditions: at 5 μM; only one of nine cell lines tested; ref Van Voorhis et al., 2016; cited from earlier work
[6] = tested on: Plasmodium berghei ookinete; set-up: method as in Van Voorhis et al., 2016; conditions: at 10 μM; ref Van Voorhis et al., 2016; cited from earlier work
[7] = set-up: method as in MMV data sheet; conditions: at 5 uM; ref MMV data sheet; cited from earlier work
[8] = set-up: method as in MMV data sheets; conditions: at 5 uM; ref MMV data sheets; cited from earlier work
[9] = tested on: bovine PBMC stimulated with ConA (Con A blasts)
Description: as §1, §2, §3

[10] = tested on: human foreskin fibroblast control cells; set-up: method as in Hostettler et al., 2016; conditions: T. annulata assay; ref Hostettler et al., 2016; cited from earlier work
[11] = tested on: Theileria annulata infected cell lines; set-up: method as in Hostettler et al., 2016; conditions: ref Hostettler et al., 2016; cited from earlier work
T. annulata gene TaSP = tested on: T. annulata gene TaSP; set-up: method as in Hostettler et al., 2016; conditions: ref Hostettler et al., 2016; cited from earlier work
[12] = uninfected bovine PBMC stimulated with ConA (Con A blasts), CC50 (μM) Con A blasts, uninfected bovine PBMC stimulated with ConA, 48 h compound, 3H-thymidine incorporation
[13] = Bos taurus, Lymphocyte, read-out: IC50 (μM) F100TpM, T. parva infected lymphocyte cell line, 48 h compound, 3H-thymidine incorporation
[14] = MMV Malaria Box sheet, ref MMV data sheets, read-out: EC50_nM
[15] = source StJude, ref ChEMBL_NTD, read-out: CHEMBL EC50
[16] = read-out: IC50 (μM) F100TpM, T. parva infected lymphocyte cell line, 48 h compound, 3H-thymidine incorporation
[17] = MMV Malaria Box data sheet, ref MMV data sheets
[18] = MMV Malaria Box data sheet, ref MMV data sheets, read-out: EC50_nM
[19] = source GNF, ref ChEMBL_NTD, read-out: CHEMBL EC50
[20] = source GSK, ref ChEMBL_NTD, read-out: CHEMBL EC50
[21] = ChEMBL-NTD value per source (GNF, GSK, StJude), several values in a cell follow the order of the sources, read-out: CHEMBL EC50
[22] = MMV Malaria Box sheet, ref MMV data sheets
[23] = given in Comment because of solubility issue at 5 uM, ref MMV data sheets

CC(C)(C)[C@H]1CC[C@H](CC2=C(O)C(=O)c3ccccc3C2=O)CC1 [Buparvaquone, reference compound]
CC50 at 48 h [1, 12]: > 10 µM | IC50 [2, 13]: 0.0042 µM | TI (CC50/IC50), therapeutic index [2]: >2380 | TI (CC50/IC50), therapeutic index ([2]; listed as buparvaquone): more than 2000

Cc1nc(Nc2ncc(C(=O)Nc3c(C)cccc3Cl)s2)cc(N2CCN(CCO)CC2)n1 [Dasatinib, dasatinib, reference compound]
TI (CC50/IC50), therapeutic index [2]: > 2000 | CC50 at 48 h (in vitro): > 10 µM

Oc1ccc(Br)cc1CN1CCN(Cc2cccc(F)c2)CC1 [MMV000356]
CC50 at 48 h [1]: 0.86 µM | IC50 ([2]; Bos taurus, Lymphocyte, read-out: IC50 (μM) F100TpM): 0.87 µM | TI (CC50/IC50), therapeutic index [2]: 0.99 | EC50 [3, 14]: 1.03 µM | EC50 [3, 15]: 1.4 µM

COC(=O)Nc1nc2ccc(C(=O)c3ccccc3)cc2[nH]1 [MMV003152, Mebendazole, reference compound]
TI (CC50/IC50), therapeutic index [2]: <0.001 | IC50 [2, 16]: 0.36 µM | IC50 ([2]; read-out: IC50 (μM) F100TpM, T. parva infected lymphocyte cell line, 48 h compound, 3H-thymidine incorporation, listed as mebendazole): < 1 µM | CC50 at 48 h (in vitro): < 0.001 µM

CCCN(CCC)CC(O)COc1ccccc1C(=O)Nc1ccccc1 (centres unmarked) [MMV006455]
CC50 at 48 h [1, 12]: 0.9 µM | IC50 [2, 13]: 0.84 µM | TI (CC50/IC50), therapeutic index [2]: 1.07 | percent_inh @ 5 uM [3, 17]: 98% | EC50 [3, 18]: 0.196 µM | EC50 [3, 19]: 0.365 µM | EC50 [3, 20]: 0.799 µM

COc1cc(-c2nc(-c3ccc(Sc4ccccc4)cc3)c(-c3ccccc3)[nH]2)cc(OC)c1O [MMV007273]
CC50 at 48 h [1, 12]: 0.06 µM | IC50 [2, 13]: 0.04 µM | TI (CC50/IC50), therapeutic index [2]: 1.5 | EC50 [3, 21]: 1.28 µM

Clc1ccc2c(N3CCCC3)ccnc2c1 [MMV007363]
CC50 at 48 h [1, 12]: 1.09 µM | IC50 [2, 13]: 1.93 µM | TI (CC50/IC50), therapeutic index [2]: 0.56 | percent_inh @ 5 uM [3, 22]: 97% | EC50 [3, 14]: 0.944 µM | EC50 [3, 19]: 0.283 µM

COc1ccc2nc(C)cc(Nc3cccc(O)c3)c2c1 [MMV008212]
CC50 [4]: > 10 µM | CC50 at 48 h [1, 12]: > 5 µM | IC50 [2, 13]: 0.78 µM | TI (CC50/IC50), therapeutic index [2]: >12 | growth inhibition of Trypanosoma cruzi (Trypanosoma cruzi): 100% | growth inhibition of P. falciparum gametocyte NF54-late stage [5]: 91% | cell death, U87 cell line (U87): 76% | percent_inh @ 5 uM [3, 22]: 98% | EC50 [3, 14]: 0.969 µM | growth inhibition of P. falciparum 3D7 asexual blood stage ([3]; at 5 μM, ref Van Voorhis et al., 2016): 98% | EC50 [3, 19]: 0.228 µM | growth inhibition of Plasmodium berghei ookinete [6]: 76%

CCOc1cccc(C(=O)Nc2ccc(-c3nc4ccccc4[nH]3)cc2)c1 [MMV019202]
Solubility (Comment) [7]: Solubility issue at 5 uM | % inh. At 2.5 uM ([3]; Comment column, ref MMV data sheet): 97% | EC50 ([3]; value(s) per source (GSK, GNF, StJude), separated by semicolon, ref ChEMBL-NTD, read-out: CHEMBL EC50): 1.01 µM

COc1ccc(-c2nonc2NC(=O)c2cccc(Cl)c2)cc1OC [MMV020660]
Comment: solubility [8]: Solubility issue at 5 uM | % inh. At 2.5 uM [3, 23]: 97% | EC50 [3, 20]: 0.876 µM

COc1ccc(-c2cnc3ccc(N4CCCC4)nn23)cc1OC [MMV023985]
TI (CC50/IC50), therapeutic index [2]: <0.001 | IC50 [2, 16]: 0.52 µM | CC50 [9]: < 0.001 µM

CCOC(=O)c1cnc2c(CC)cccc2c1O [MMV498479]
CC50 at 48 h [1, 12]: 0.13 µM | IC50 [2, 13]: 0.05 µM | TI (CC50/IC50), therapeutic index [2]: 2.6 | EC50 [3, 21]: 1.66 µM

CCOc1cc(Cl)c(C(C)NC(=O)c2ccccc2)cc1OCC (centres unmarked) [MMV665800]
CC50 at 48 h [1, 12]: 0.53 µM | IC50 [2, 13]: 0.49 µM | TI (CC50/IC50), therapeutic index [2]: 1.08 | percent_inh @ 5 uM [3, 17]: 96% | EC50 [3, 18]: 1.37 µM | EC50 [3, 20]: 0.875 µM

COc1ccc2c(=O)cc(C(Cl)(Cl)Cl)oc2c1 [MMV665820]
viability of human foreskin fibroblast control cells [10]: did not impair viability | inhibitory activity on T. annulata cell lines [11]: inhibitory | CC50 at 48 h [1, 12]: 0.25 µM | IC50 [2, 13]: 0.15 µM | TI (CC50/IC50), therapeutic index [2]: 1.67 | lowering of relative expression of T. annulata gene TaSP (T. annulata gene TaSP): failed to lower the relative expression of T. annulata gene TaSP by 50% | percent_inh @ 5 uM [3, 17]: 94% | EC50 [3, 18]: 0.52 µM | EC50 [3, 15]: 15 µM

CCCc1cc(O)c2c3c(c(=O)oc2c1)CN(C)CC3 [MMV665841]
CC50 at 48 h [1, 12]: 0.66 µM | IC50 [2, 13]: 0.36 µM | TI (CC50/IC50), therapeutic index [2]: 1.83 | percent_inh @ 5 uM [3, 17]: 97% | EC50 [3, 18]: 0.146 µM | EC50 [3, 19]: 0.554 µM | EC50 [3, 20]: 0.873 µM

CC(=O)c1ccc(NC(=O)CSc2nc(-c3ccccc3Cl)ns2)cc1 [MMV666124]
Comment: solubility [8]: Solubility issue at 5 uM | % inh. At 2.5 uM [3, 23]: 88% | EC50 [3, 20]: 1.13 µM

CO[C@@H](C(=O)N1Cc2[nH]nc(NC(=O)c3ccc(N4CCN(C)CC4)cc3)c2C1)c1ccccc1 [MMV676600]
TI (CC50/IC50), therapeutic index [2]: <0.001 | IC50 [2, 16]: 0.55 µM | CC50 [9]: < 0.001 µM

CNC(=O)c1nn(C)c2c1C(C)(C)Cc1cnc(Nc3ccc(N4CCN(C)CC4)cc3)nc1-2 [MMV676602]
CC50 [4]: 0.3 µM | TI (CC50/IC50), therapeutic index [2]: 0.86 | IC50 [2, 16]: 0.35 µM

Cc1nn(C)c(C)c1NS(=O)(=O)c1c(Cl)cc(-c2ccnc(N3CCNCC3)c2)cc1Cl [MMV688180]
CC50 [4]: < 0.001 µM | TI (CC50/IC50), therapeutic index [2]: <0.001 | IC50 [2, 16]: 0.97 µM

N=C(N)Nc1ccc(-c2ccc(-c3ccc(N=C(N)N)c(Cl)c3)o2)cc1Cl [MMV688271]
TI (CC50/IC50), therapeutic index [2]: 0.95 | IC50 [2, 16]: 0.59 µM | CC50 [9]: 0.56 µM

CC(=O)OCC1OC([S-])C(OC(C)=O)C(OC(C)=O)C1OC(C)=O.CCP(CC)CC.[Au+] (centres unmarked) [MMV688978, Auranofin, reference compound]
CC50 [4]: 0.4 µM | TI (CC50/IC50), therapeutic index [2]: 0.74 | IC50 [2, 16]: 0.54 µM | IC50 ([2]; read-out: IC50 (μM) F100TpM, T. parva infected lymphocyte cell line, 48 h compound, 3H-thymidine incorporation, listed as auranofin): < 1 µM
